From patent publication US9187472B2 (AbbVie Inc., priority 2012, dated 2015) come the findings set out here.

The test system of this experiment is PC3 cells. Briefly: NAMPT Cell Proliferation Assay. To be noted: Homo sapiens, PC-3, 120 h, 5 days incubation, cell viability by Cell Titer Glo. Type of experiment: cell-based. A digest of the protocol: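 Following overnight attachment in RPMI with 10% heat-inactivated FBS, PC3 cells at 500 per well receive compounds spanning 10 μM down to 1×10^−5 μM. Growth is assessed by luminescent viability read after 5 days.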
Background: ATP-based viability assays read luminescence as a measure of living cells.
As to `CC(C)CS(=O)(=O)CC(=O)N1CCC(c2ccc(C(=O)NCc3ccn4ccnc4c3)cc2)CC1` [Example 929, N-(imidazo[1,2-a]pyridin-7-ylmethyl)-4-(1-{[(2-methylpropyl)sulfonyl]acetyl}piperidin-4-yl)benzamide], it took 24.7 nM to reach half-maximal inhibition (IC50). In other words, the double-digit nanomolar range. For the compound `CC(Oc1ccccc1)C(=O)N1CCC(c2ccc(C(=O)NCc3ccn4ccnc4c3)cc2)CC1` (stereo not drawn) [Example 930, N-(imidazo[1,2-a]pyridin-7-ylmethyl)-4-[1-(2-phenoxypropanoyl)piperidin-4-yl]benzamide], the IC50 (commonly the concentration needed to halve the response being measured) stood at 2.09 nM. `C[C@H]1CCCC[C@H]1OCC(=O)N1CCC(c2ccc(C(=O)NCc3ccn4ccnc4c3)cc2)CC1` [Example 931, N-(imidazo[1,2-a]pyridin-7-ylmethyl)-4-[1-({[(1R,2S)-2-methylcyclohexyl]oxy}acetyl)piperidin-4-yl]benzamide] gave an IC50 of 6.77 nM. `Cc1cc(C(=O)N2CCC(c3ccc(C(=O)NCc4ccn5ccnc5c4)cc3)CC2)cc(Cl)n1` [Example 932, 4-{1-[(2-chloro-6-methylpyridin-4-yl)carbonyl]piperidin-4-yl}-N-(imidazo[1,2-a]pyridin-7-ylmethyl)benzamide] showed an IC50 of 30.3 nM. As to `COc1cccc(CC(=O)N2CCC(c3ccc(C(=O)NCc4ccn5ccnc5c4)cc3)CC2)c1` [Example 933, N-(imidazo[1,2-a]pyridin-7-ylmethyl)-4-{1-[(3-methoxyphenyl)acetyl]piperidin-4-yl}benzamide], the half-inhibitory concentration (IC50) was 71.7 nM. As for `N#Cc1ccc(C(=O)N2CCC(c3ccc(C(=O)NCc4ccn5ccnc5c4)cc3)CC2)c(Cl)c1` [Example 934, 4-[1-(2-chloro-4-cyanobenzoyl)piperidin-4-yl]-N-(imidazo[1,2-a]pyridin-7-ylmethyl)benzamide], the 50% inhibitory concentration (IC50) turned out to be 6.38 nM. Consider `C/C=C(\C)C(=O)N1CCC(c2ccc(C(=O)NCc3ccn4ccnc4c3)cc2)CC1` [Example 935, N-(imidazo[1,2-a]pyridin-7-ylmethyl)-4-{1-[(2E)-2-methylbut-2-enoyl]piperidin-4-yl}benzamide], for which the half-maximal inhibitory concentration (IC50) was found to be 10.3 nM. `COc1ccc(C)cc1CC(=O)N1CCC(c2ccc(C(=O)NCc3ccn4ccnc4c3)cc2)CC1` [Example 936, N-(imidazo[1,2-a]pyridin-7-ylmethyl)-4-{1-[(2-methoxy-5-methylphenyl)acetyl]piperidin-4-yl}benzamide] gave an IC50 of 32.5 nM. Consider `Cc1cccc(C(=O)N2CCC(c3ccc(C(=O)NCc4ccn5ccnc5c4)cc3)CC2)c1O` [Example 937, 4-[1-(2-hydroxy-3-methylbenzoyl)piperidin-4-yl]-N-(imidazo[1,2-a]pyridin-7-ylmethyl)benzamide], for which the IC50 turned out to be 80.9 nM. `O=C(NCc1ccn2ccnc2c1)Nc1ccc(C2CCN(C(=O)c3cccnc3Cl)CC2)cc1` [Example 938, 1-(4-{1-[(2-chloropyridin-3-yl)carbonyl]piperidin-4-yl}phenyl)-3-(imidazo[1,2-a]pyridin-7-ylmethyl)urea]: half-maximal inhibition (IC50) was put at 6.27 nM. As to `CC(C)=CC(=O)N1CCC(c2ccc(NC(=O)NCc3ccn4ccnc4c3)cc2)CC1` [Example 939, 1-(imidazo[1,2-a]pyridin-7-ylmethyl)-3-{4-[1-(3-methylbut-2-enoyl)piperidin-4-yl]phenyl}urea], the IC50 was > 10000 nM. Consider `CC(C)(C)CC(=O)N1CCC(c2ccc(NC(=O)NCc3ccn4ccnc4c3)cc2)CC1` [Example 940, 1-{4-[1-(3,3-dimethylbutanoyl)piperidin-4-yl]phenyl}-3-(imidazo[1,2-a]pyridin-7-ylmethyl)urea], for which the half-maximal inhibitory concentration (IC50) was found to be 0.691 nM. In other words, the sub-nanomolar range. Then `CC1=C(C(=O)N2CCC(c3ccc(NC(=O)NCc4ccn5ccnc5c4)cc3)CC2)CCC1` [Example 941, 1-(imidazo[1,2-a]pyridin-7-ylmethyl)-3-(4-{1-[(2-methylcyclopent-1-en-1-yl)carbonyl]piperidin-4-yl}phenyl)urea], with 0.519 nM. The figure for `CCC(CC)C(=O)N1CCC(c2ccc(NC(=O)NCc3ccn4ccnc4c3)cc2)CC1` [Example 942, 1-{4-[1-(2-ethylbutanoyl)piperidin-4-yl]phenyl}-3-(imidazo[1,2-a]pyridin-7-ylmethyl)urea] is 1.02 nM. Then `O=C(NCc1ccn2ccnc2c1)Nc1ccc(C2CCN(C(=O)COc3ccc(F)cc3)CC2)cc1` [Example 943, 1-(4-{1-[(4-fluorophenoxy)acetyl]piperidin-4-yl}phenyl)-3-(imidazo[1,2-a]pyridin-7-ylmethyl)urea], with 24.4 nM; and `COc1ccc(C(=O)N2CCC(c3ccc(NC(=O)NCc4ccn5ccnc5c4)cc3)CC2)c(OC)c1` [Example 944, 1-{4-[1-(2,4-dimethoxybenzoyl)piperidin-4-yl]phenyl}-3-(imidazo[1,2-a]pyridin-7-ylmethyl)urea], with 3.36 nM.

In the case of `O=C(NCc1ccn2ccnc2c1)Nc1ccc(C2CCN(C(=O)C3CC=CCC3)CC2)cc1` (stereo not drawn) [Example 945, 1-{4-[1-(cyclohex-3-en-1-ylcarbonyl)piperidin-4-yl]phenyl}-3-(imidazo[1,2-a]pyridin-7-ylmethyl)urea], it took 2.38 nM to reach half-maximal inhibition (IC50). Regarding `COc1ccc(OC)c(C(=O)N2CCC(c3ccc(NC(=O)NCc4ccn5ccnc5c4)cc3)CC2)c1` [Example 946, 1-{4-[1-(2,5-dimethoxybenzoyl)piperidin-4-yl]phenyl}-3-(imidazo[1,2-a]pyridin-7-ylmethyl)urea], half-maximal inhibition (IC50) was put at 5.94 nM. On to `COc1ccccc1CC(=O)N1CCC(c2ccc(NC(=O)NCc3ccn4ccnc4c3)cc2)CC1` [Example 947, 1-(imidazo[1,2-a]pyridin-7-ylmethyl)-3-(4-{1-[(2-methoxyphenyl)acetyl]piperidin-4-yl}phenyl)urea], for which inhibition was half-maximal at 3.28 nM (IC50). As for `O=C(NCc1ccn2ccnc2c1)Nc1ccc(C2CCN(C(=O)C(CO)c3ccccc3)CC2)cc1` (stereo not drawn) [Example 948, 1-{4-[1-(3-hydroxy-2-phenylpropanoyl)piperidin-4-yl]phenyl}-3-(imidazo[1,2-a]pyridin-7-ylmethyl)urea], 5.39 nM corresponded to half-maximal inhibition (IC50).

Take `COc1cccc(OC)c1C(=O)N1CCC(c2ccc(NC(=O)NCc3ccn4ccnc4c3)cc2)CC1` [Example 949, 1-{4-[1-(2,6-dimethoxybenzoyl)piperidin-4-yl]phenyl}-3-(imidazo[1,2-a]pyridin-7-ylmethyl)urea]: the concentration for half-maximal inhibition (IC50) turned out to be 25.4 nM. This IC50 is about 4.7-fold higher than that of the compound before.

`CCN(CC)CCC(=O)N1CCC(c2ccc(NC(=O)NCc3ccn4ccnc4c3)cc2)CC1` [Example 950, 1-{4-[1-(N,N-diethyl-beta-alanyl)piperidin-4-yl]phenyl}-3-(imidazo[1,2-a]pyridin-7-ylmethyl)urea] had a concentration for half-maximal inhibition (IC50) of 634 nM. Then `Cc1cc(C(=O)N2CCC(c3ccc(NC(=O)NCc4ccn5ccnc5c4)cc3)CC2)cc(Cl)n1` [Example 951, 1-(4-{1-[(2-chloro-6-methylpyridin-4-yl)carbonyl]piperidin-4-yl}phenyl)-3-(imidazo[1,2-a]pyridin-7-ylmethyl)urea], with 63.9 nM; and `COc1cccc(CC(=O)N2CCC(c3ccc(NC(=O)NCc4ccn5ccnc5c4)cc3)CC2)c1` [Example 952, 1-(imidazo[1,2-a]pyridin-7-ylmethyl)-3-(4-{1-[(3-methoxyphenyl)acetyl]piperidin-4-yl}phenyl)urea], with 10.3 nM. The compound `O=C(NCc1ccn2ccnc2c1)Nc1ccc(C2CCN(C(=O)c3cccc4c3CCC4=O)CC2)cc1` [Example 953, 1-(imidazo[1,2-a]pyridin-7-ylmethyl)-3-(4-{1-[(1-oxo-2,3-dihydro-1H-inden-4-yl)carbonyl]piperidin-4-yl}phenyl)urea] returned an IC50 of 2.35 nM. `N#Cc1ccc(C(=O)N2CCC(c3ccc(NC(=O)NCc4ccn5ccnc5c4)cc3)CC2)c(Cl)c1` [Example 954, 1-{4-[1-(2-chloro-4-cyanobenzoyl)piperidin-4-yl]phenyl}-3-(imidazo[1,2-a]pyridin-7-ylmethyl)urea] yielded an IC50 of 2.76 nM.

For the compound `C/C=C(\C)C(=O)N1CCC(c2ccc(NC(=O)NCc3ccn4ccnc4c3)cc2)CC1` [Example 955, 1-(imidazo[1,2-a]pyridin-7-ylmethyl)-3-(4-{1-[(2E)-2-methylbut-2-enoyl]piperidin-4-yl}phenyl)urea], it took 2.56 nM to reach half-maximal inhibition (IC50). Turning to `O=C(NCc1ccn2ccnc2c1)Nc1ccc(C2CCN(C(=O)Cc3c[nH]c4ccccc34)CC2)cc1` [Example 956, 1-(imidazo[1,2-a]pyridin-7-ylmethyl)-3-{4-[1-(1H-indol-3-ylacetyl)piperidin-4-yl]phenyl}urea], half-maximal inhibition (IC50) required 8.83 nM. `Cc1cccc(C(=O)N2CCC(c3ccc(NC(=O)NCc4ccn5ccnc5c4)cc3)CC2)c1O` [Example 957, 1-{4-[1-(2-hydroxy-3-methylbenzoyl)piperidin-4-yl]phenyl}-3-(imidazo[1,2-a]pyridin-7-ylmethyl)urea]: the IC50 amounted to 3.51 nM. Compared with the last compound, the IC50 is about 2.5-fold lower. The compound `O=C(NCc1ccn2ccnc2c1)c1ccc(C2CCN(C(=O)N3CCCC3)CC2)cc1` [Example 958, N-(imidazo[1,2-a]pyridin-7-ylmethyl)-4-[1-(pyrrolidin-1-ylcarbonyl)piperidin-4-yl]benzamide] yielded an IC50 of 21.4 nM. With `CC(C)n1ccc(C(=O)N2CCC(c3ccc(C(=O)NCc4ccn5ccnc5c4)cc3)CC2)n1` [Example 959, N-(imidazo[1,2-a]pyridin-7-ylmethyl)-4-(1-{[1-(propan-2-yl)-1H-pyrazol-3-yl]carbonyl}piperidin-4-yl)benzamide], the IC50 came out at 9.76 nM. In turn, `Cn1nc(C2CC2)cc1C(=O)N1CCC(c2ccc(C(=O)NCc3ccn4ccnc4c3)cc2)CC1` [Example 960, 4-{1-[(3-cyclopropyl-1-methyl-1H-pyrazol-5-yl)carbonyl]piperidin-4-yl}-N-(imidazo[1,2-a]pyridin-7-ylmethyl)benzamide] registered an IC50 of 6.13 nM. Compared with the last compound, the IC50 is about 1.6-fold lower. With `Cn1nc2c(c1C(=O)N1CCC(c3ccc(C(=O)NCc4ccn5ccnc5c4)cc3)CC1)CCCC2` [Example 961, N-(imidazo[1,2-a]pyridin-7-ylmethyl)-4-{1-[(2-methyl-4,5,6,7-tetrahydro-2H-indazol-3-yl)carbonyl]piperidin-4-yl}benzamide], the IC50 stood at 8.94 nM.
